Measurements reported in patent EP0119450A1, “Preparation of aminopyrazolines and intermediates used therein” (THE WELLCOME FOUNDATION LIMITED, priority 1983, dated 1984).

Legend:
[1] = target: Cyclooxygenase; test: Enzyme assay, inhibition of cyclooxygenase (method based on Borgeat et al); assay type: biochemical
[2] = target: Lipoxygenase; test: Enzyme assay, inhibition of lipoxygenase (method based on Borgeat et al); assay type: biochemical
[3] = Storage stability at normal room temperature in sealed containers, analysed by T.l.c.; assay type: physicochemical; conditions: freshly prepared samples, T.l.c. at regular intervals
From the text: Freshly prepared samples of the compound of Example 29/30B and the compound 2B (the latter also being disclosed in European Specification 55 418) were stored separately at normal room temperature in sealed containers and analysed at regular intervals by T.l.c.

[4] = system: Prostaglandin E2; test: Prostaglandin synthesis in carrageenin sponge exudates; assay type: in vivo; conditions: Rattus norvegicus, po; male rats, carrageenin sponge exudate collected at 24 hours; read-out: ED50 Prostaglandin Production (rat)
Protocol: (§1) The compound of Example 29/3UB was subjected to the following tests. Results are given in Table II as ED50 mg/kg upon oral administration.
(§2) Inflammatory exudates were collected 24 hours after the subcutaneous implantation in male rats (180-220g) of sterile polyester sponges impregnated with 2% carrageenin. Prostaglandin E2 concentrations in sponge exudates were measured by bioassay and total leucocyte numbers were estimated using counting chambers and phase contrast microscopy. Drugs were administered orally in aqueous solution to groups of five animals at the time of sponge implantation, 5-8 hours later and 3 hours before sponge removal. Results are expressed as a percentage of control values obtained from similar groups of animals receiving vehicle alone. ED50 values were calculated for active compounds. The full dose-response data for lead compounds were subjected to regression analysis and ED50 values with 95% confidence limits were obtained.

[5] = system: total leucocyte numbers; test: Leucocyte accumulation in carrageenin sponge exudates; assay type: in vivo; conditions: Rattus norvegicus, po, male rats, carrageenin sponge exudate collected at 24 hours
Protocol: as §1, §2

[6] = system: female rats; test: Carrageenin-induced paw oedema; assay type: in vivo; conditions: Rattus norvegicus, po, swelling measured 1-4 hours after carrageenin
Protocol: as §1
Oedema was induced by the sub-plantar injection of 2% carrageenin (0.1 ml) in the hind paws of female rats (100-130g). Swelling was measured 1-4 hours following carrageenin injection using a micrometer gauge. Drugs in aqueous solution were administered orally to groups of five rats at the time of carrageenin injection. Mean swelling was expressed as a percentage of control values obtained from similar groups of animals receiving vehicle alone.

[7] = system: female mice; test: Phenylbenzoquinone (PBQ) induced writhing; assay type: in vivo; conditions: Mus musculus, po, p.o. 1 hour before PBQ 2.5 mg/kg i.p.
Protocol: as §1
Writhing was induced in groups of 5 female mice (20-25g) following the intraperitoneal injection of phenylbenzoquinone (PBQ; 2.5 mg/kg). Anti- nociceptive effects of drugs were assessed by observing the reduction in writhing responses 10-12½ min after PBQ injection. Drugs were administered orally in aqueous solution 1 hour before PBQ injection and drug effects were expressed as a percentage of control values obtained from animals receiving vehicle alone.

Structure (SMILES): CCCN(C=O)C1=NN(c2cccc(C(F)(F)F)c2)CC1 [Example 5A, N-(n-propyl)-N-[1-(3-trifluoromethylphenyl)-2-pyrazolin-3-yl]-formamide]
- IC50 [1]: 10 µM
- IC50 [2]: 1 µM

Structure (SMILES): CC(=O)N(C)C1=NN(c2cccc(C(F)(F)F)c2)CC1 [29&30B, N-methyl-N-[1-(3-trifluoromethylphenyl)-2-pyrazolin-3-yl] acetamide]
- decomposition on storage [3]: no significant decomposition, 2 years from the outset of the Experiment
- IC50 [1]: 1 µM
- IC50 [2]: 1 µM
- ED50 [4]: 35 mg/kg
- ED50 [5]: 57 mg/kg
- ED50 [6]: 15 mg/kg
- ED50 [7]: 45 mg/kg

Structure (SMILES): CCC(=O)N(C)C1=NN(c2cccc(C(F)(F)F)c2)CC1 [Example 32, N-methyl-N-[1-(3-trifluoromethylphenyl)-2-pyrazolin-3-yl]propionamide]
- IC50 [1]: > 10 µM
- IC50 [2]: 1 µM

Structure (SMILES): O=CN(CC=CCCl)C1=NN(c2cccc(C(F)(F)F)c2)CC1 [Example 34]
- IC50 [1]: 10 µM
- IC50 [2]: 3 µM

Structure (SMILES): O=CN(CC=Cc1ccccc1)C1=NN(c2cccc(C(F)(F)F)c2)CC1 [Example 9A, N-(cinnamyl)-N-[1-(3-trifluoromethylphenyl)-2-pyrazolin-3-yl]formamide]
- IC50 [1]: 2 µM
- IC50 [2]: 1.5 µM

Structure (SMILES): CC(=O)N(C)C1=NN(c2ccc(Br)c(C(F)(F)F)c2)CC1 [Example 45, N-methyl-N-[1-(4-bromo-3-trifluoromethylphenyl)-2-pyrazolin-3-yl]acetamide]
- IC50 [1]: 1 µM
- IC50 [2]: 1 µM

Structure (SMILES): O=CN(Cc1ccc(F)cc1)C1=NN(c2ccc(Br)c(C(F)(F)F)c2)CC1 [Example 18B, N-[1-(4-bromo-3-trifluoromethylphenyl)-2-pyrazolin-3-yl]-N-(4-fluorobenzyl)formamide]
- IC50 [1]: 2 µM
- IC50 [2]: 5 µM

Structure (SMILES): C=CCN(C=O)C1=NN(c2cccc(C(F)(F)F)c2)CC1 [Example 3A, N-(2-propenyl)-N-[1-(3-trifluoromethylphenyl)-2-pyrazolin-3-yl]formamide]
- IC50 [1]: 5 µM
- IC50 [2]: 2 µM

Structure (SMILES): CNC1=NN(c2cccc(C(F)(F)F)c2)CC1 [Example 2B, 3-methylamino-1-(3-trifluoromethylphenyl)-2-pyrazoline]
- decomposition on storage [3]: significant decomposition after six months

Structure (SMILES): C#CCN(C=O)C1=NN(c2cccc(C(F)(F)F)c2)CC1 [Example 4A, N-(2-propynyl)-N-[1-(3-trifluoromethylphenyl)-2-pyrazolin-3-yl]formamide]
- IC50 [1]: 3 µM
- IC50 [2]: 0.5 µM

Structure (SMILES): O=CN(CC1CC1)C1=NN(c2cccc(C(F)(F)F)c2)CC1 [Example 8A, N-(cyclopropylmethyl)-N-[1-(3-trifluoromethylphenyl)-2-pyrazolin-3-yl]formamide]
- IC50 [1]: 8 µM
- IC50 [2]: 2 µM
